Values after ≈ are worked out from the molar mass of the structure shown. Read-outs that look alike come from different tables or passages of the source.
What was measured:
[1] = tested on: S. aureus specific Arg ASL (anticodon stem loop) RNA oligomer interaction with programmed ribosomes; test: Fluorescence polarization assay of Arg ASL / programmed ribosome complex (HTS and dose response); type: binding, S. aureus Arg ASL; E. coli 70S ribosomes; details: 6 pt dose response, fluorescence polarization after 4 hours at 25° C., corrected for auto-fluorescence; read-out: IC50
Source text: The assay requires the following materials: • Ribosomes—isolated from E. coli or S. aureus • fMet tRNA (Sigma or Chemical Block, Moscow) • mRNA (including the S-D sequence, the “box” sequence, the codon for methionine, and the codon for arginine that is specific for S. aureus, AGA, optionally with additional base pairs to the left of the S-D sequence and/or to the right of the codon for arginine) • Fluorescently labeled Arg ASL oliogomer • Buffer—HAM20,β • 384 well high binding micro titer plates (Matrix Technologies #4319, sold by Fischer Scientific as cat #50823855), or other appropriate plates for use in high throughput screening • Filtration (Sartorius Stedium 100 Kdalton VC 1042) or centrifugation for complex purification • EDTA—negative control (binding antagonist) • Neomycin—A-site binding enhancer (binding agonist)
A ribosome complex was prepared using the above materials and then purified prior to use in the assay. The prepared complex can be stored in concentrated form at −80° C. The complexes were diluted in buffer and dispensed onto plates. […] Fluorescence polarization was measured at approximately 4 hours after dispensing onto the micro-titer plates.
ASL^Arg was first heated for 2 min at 90° C. in water, after addition of 1/10 V of 10× buffer incubation continued on ice for at least 10 min. Prior to complex formation 70S ribosomes and tRNA were reactivated in buffer for 5 min at 45° C. followed by 10 min at 37° C.; mRNA was heated in buffer at 37° C. for 5 min. • (1000 μl×(2 μM E. coli 70S ribosomes+10 μM mRNA-Arg+4 μM tRNA^fmet)/HAM20,β→30 min @ 37° C.,+1000 μl×(0.2 μM neomycin+[…]))→20 min @ 37° C., overnight on ice • Final complex: (2000 pm P+2000 pm ASL)/2 ml=1 μM P+1 μM ASL HAM20,β:
Preparation of Complexes: The purified complex was diluted in ice cold HAM20,β such that the total fluorescence was approximately 2,000,000 units per 5 μL.
20 μl of the diluted complex was added to all 384 well plates (except for blank wells, which received 20 μL of HAM20 only, without complex) using Multidrop dispenser after which the plates were incubated at 25° C. for 4 hours (target 4.5 hours for middle of batch). Plates were then analyzed for fluorescence polarization in Analyst HT fluorescence plate reader and the following instrument settings:
The parallel and perpendicular fluorescence values of experimental wells were automatically corrected for the corresponding values obtained from the blank wells. The fluorescence polarization was calculated as following: P=(I−Ip)/(I+Ip), wherein Ip—is perpendicular fluorescence and I—is parallel fluorescence.
The percent of effect of experimental compounds was calculated as following: %-Inh=(P0−Pc)/(P0−P100)*100, wherein P0—is average polarization in 0%—inhibition control wells, P100—is average polarization in 100%—inhibition control wells, and Pc—is polarization in compound well.
The 3 sigma HTS hits were cherry picked and retested in 6 pt dose response format, using 3× serial dilution and the top nominal concentration of 100 uM.
The compounds were serially diluted in 10% DMSO and plated into 384 well plates (in a volume of 5 μL) to achieve the nominal final concentration raging from 100 μM to 0.4 μM. The plates received 20 μl of the diluted complex following incubation at 25° C. for 4 hours. Plates were then analyzed for fluorescence polarization as described above (see HTS section).
In parallel, the compounds were tested for auto-fluorescence. To this end, the compounds were plated (using the same dilution protocol) into 384 well plates. The plates received 20 μL of the HAM20 assay buffer only (without complex). The plates were incubated for 4 hrs and then were analyzed for fluorescence polarization as described above.

Mammalian Cell Toxicity = type: cell-based; details: mouse, 3T3 cells
S. aureus ATCC 29213 = test: Resistance passaging experiment; type: cell-based; details: Staphylococcus aureus
Procedure: Two compounds (#880 and #169) were tested in time-kill assays against S. aureus strain 29213. These compounds were then used to attempt to select for resistant variants by passaging at sub-MIC concentrations for 20 passages.
The selected strain for this experiment was S. aureus ATCC 29213. A frozen glycerol stock was streaked onto MH-II agar and grown overnight at 37° C. The next day, 3-5 colonies were picked and grown in 3 mL of MH-II broth at 37° C. with 200 rpm shaking for approximately 4 hours. A 2-fold microdilution (in round-bottom, 96-well plates) was made for each compound being tested. CLSI guidelines for broth microdilution were followed. Using the bacteria grown from the overnight colonies, each microdilution was inoculated at a final concentration of 5×10^5 colony forming units (CFU)/mL. The microdilutions were incubated at 37° C. for 16 to 20 hours, after which the minimal inhibitory concentration (MIC) of each was read visually. The MIC is defined as the lowest concentration of compound resulting in no visible bacterial growth. This activity is recorded as the MIC at Passage 0. The contents of the well in the next dilution lower in concentration than the MIC (i.e., ½ the MIC) was mixed with a micropipette and 50 μL was transferred to 3 mL of fresh MH-II broth. This was grown at 37° C. with 200 rpm shaking for approximately 4 hours, at which time the sample was turbid. A 1 mL aliquot of this sample was added to a cryovial containing 300 μL of glycerol. This was marked as passage 1, vortexed, than placed in a −80° C. freezer for storage. The rest of the culture was adjusted to a bacterial concentration of 1×10^6cfu/mL (OD600 of 0.004), which was then used to inoculate a microdilution of the same compound (final bacterial concentration of 5×10^5 cfu/mL). This was incubated at 37° C. for 16 to 20 hours. After that time the MIC was once again read and recorded as the MIC at Passage 1. This process was repeated through 20 passages. Ciprofloxacin was included as a control and an untreated sample was also passaged 20 times as a negative control.

E. coli ESBL 4 = test: MIC; type: cell-based; details: Escherichia coli, ESBL4; E. coli ESBL 4; read-out: MIC
[2] = ATCC29213, read-out: MIC in S. aureus 29213, Passage 14, passaged at sub-MIC
[3] = ATCC29213, read-out: MIC in S. aureus 29213, Passage 15, passaged at sub-MIC
[4] = ATCC29213, read-out: MIC in S. aureus 29213, Passage 16, passaged at sub-MIC
[5] = ATCC29213, read-out: MIC in S. aureus 29213, Passage 17, passaged at sub-MIC
[6] = ATCC29213, read-out: MIC in S. aureus 29213, Passage 18, passaged at sub-MIC
[7] = ATCC29213, read-out: MIC in S. aureus 29213, Passage 19, passaged at sub-MIC
[8] = ATCC29213, read-out: MIC in S. aureus 29213, Passage 20, passaged at sub-MIC
[9] = ATCC29213, read-out: MIC in S. aureus 29213, second Passage 20 line of Table 4 (untreated culture passaged 20 times)

Q: What does the source list for `Cc1ccc2nc(-c3ccc(NC(=O)CN4CCN(CCO)CC4)cc3)sc2c1` [Compound #169, 2-[4-(2-hydroxyethyl)-1-piperazinyl]-N-[4-(6-methyl-1,3-benzothiazol-2-yl)phenyl]acetamide]?
A: IC50 [1]: 69.3 µM; CC50 (Mammalian Cell Toxicity): < 2 µg/mL; MIC (S. aureus ATCC 29213; ATCC29213, read-out: MIC in S. aureus 29213, Passage 4, passaged at sub-MIC): 32 µg/mL (≈ 77.9 µM); MIC (S. aureus ATCC 29213; [2]): 32 µg/mL (≈ 77.9 µM); MIC (S. aureus ATCC 29213; [3]): 32 µg/mL (≈ 77.9 µM); MIC (S. aureus ATCC 29213; [4]): 32 µg/mL (≈ 77.9 µM); MIC (S. aureus ATCC 29213; [5]): 32 µg/mL (≈ 77.9 µM); MIC (S. aureus ATCC 29213; [6]): 32 µg/mL (≈ 77.9 µM); MIC (S. aureus ATCC 29213; [7]): 32 µg/mL (≈ 77.9 µM); MIC (S. aureus ATCC 29213; [8]): 32 µg/mL (≈ 77.9 µM); MIC (S. aureus ATCC 29213; [9]): 32 µg/mL (≈ 77.9 µM); MIC (E. coli ESBL 4): > 128 µg/mL

Q: For `Brc1ccc(-c2nc(N3CCNCC3)c3ccccc3n2)cc1` [Compound #880, 2-(4-bromophenyl)-4-(1-piperazinyl)-quinazoline], which IC50 [1] is on record?
A: The IC50 was 19.9 µM.

Q: What about the CC50 (Mammalian Cell Toxicity) of the same compound?
A: Its CC50 is 2.11 µg/mL (≈ 5.71 µM).

Q: What about the MIC (S. aureus ATCC 29213; ATCC29213, read-out: MIC in S. aureus 29213, Passage 8, passaged at sub-MIC) of the same compound?
A: The MIC was 16 µg/mL (≈ 43.3 µM).

Q: And the MIC (S. aureus ATCC 29213; ATCC29213, read-out: MIC in S. aureus 29213, Passage 10, passaged at sub-MIC)?
A: Its MIC is 16 µg/mL (≈ 43.3 µM).

Q: What about the MIC (S. aureus ATCC 29213; ATCC29213, read-out: MIC in S. aureus 29213, Passage 11, passaged at sub-MIC) of the same compound?
A: The MIC was 16 µg/mL (≈ 43.3 µM).

Q: What about the MIC (S. aureus ATCC 29213; ATCC29213, read-out: MIC in S. aureus 29213, Passage 12, passaged at sub-MIC) of the same compound?
A: Its MIC is 16 µg/mL (≈ 43.3 µM).

Q: What about the MIC (S. aureus ATCC 29213; ATCC29213, read-out: MIC in S. aureus 29213, Passage 13, passaged at sub-MIC) of the same compound?
A: The MIC was 16 µg/mL (≈ 43.3 µM).

Q: And the MIC (S. aureus ATCC 29213; [2])?
A: Its MIC is 16 µg/mL (≈ 43.3 µM).

Q: What about the MIC (S. aureus ATCC 29213; [3]) of the same compound?
A: The MIC was 16 µg/mL (≈ 43.3 µM).

Q: And the MIC (S. aureus ATCC 29213; [4])?
A: Its MIC is 16 µg/mL (≈ 43.3 µM).

Q: What about the MIC (S. aureus ATCC 29213; [5]) of the same compound?
A: Its MIC is 16 µg/mL (≈ 43.3 µM).

Q: What about the MIC (S. aureus ATCC 29213; [6]) of the same compound?
A: Its MIC is 16 µg/mL (≈ 43.3 µM).

Q: What about the MIC (S. aureus ATCC 29213; [7]) of the same compound?
A: Its MIC is 32 µg/mL (≈ 86.7 µM).

Q: And the MIC (S. aureus ATCC 29213; [8])?
A: The MIC was 32 µg/mL (≈ 86.7 µM).

Q: What about the MIC (S. aureus ATCC 29213; [9]) of the same compound?
A: Its MIC is 16 µg/mL (≈ 43.3 µM).

Q: And the MIC (E. coli ESBL 4)?
A: The MIC was 64 µg/mL (≈ 173 µM).
